{"source": "patent US5340818A", "about": "“Methods and compositions for inhibiting tumor cell growth” (priority 1993, dated 1994)", "key": {"tumors": {"system": "tumors", "conditions": "literature; cited from earlier work"}, "[1]": {"system": "RNA synthesis in HL-60 cells", "assay": "Inhibition of [5-3H]Cyd incorporation into RNA of HL-60 cells", "format": "cell-based, human", "conditions": "Homo sapiens, HL-60, 0.5 h", "description": "(§1) For the precursor incorporation studies, each compound (in 0.3% dimethylsulfoxide) was preincubated with HL-60 cells (a human promyelocytic leukemic cell line) 2.2×10^6 /ml, for 15 min prior to the addition of the labeled precursor (obtained from ICN Radiochemicals, Irvine, Calif.) and then incubated for 30 min. The precursors used for incorporation into DNA, RNA and protein were [^3 H-methyl]dThd (1 μCi, 0.15 nmole/ml), [5-^3 H]Cyd (5 μCi, 0.23 nmol/ml), and [2,3,4,5-^3 H]L-Leu (0.5 μCi, 0.004 nmol/ml), respectively. Incorporation of radioactivity in the absence of a plant compound and in the presence of dimethylsulfoxide was used as a control. The control values for incorporation into DNA, RNA and protein were 8,500, 5,600 and 1,700 cpm/10^6 cells, respectively. The incubation conditions and the procedures for isolating DNA, RNA and protein fractions have been previously described (Chou, T. -C., et al., Cancer Res., 43:3074-3079 (1983)) .\n(§2) HL-60 cells were incubated with [5-^3 H]Cyd or [2,3,4,5-^3 H]L-Leu in the presence and absence of alkaloids (0.03 mg/ml) in order to find the effects of the alkaloid on the incorporation of labeled precursors into RNA or protein. […] Over 90% of RNA and protein biosynthesis were inhibited by compounds 11, 16, 17, 22, 28, 29and 30 (Table 1). […] In most cases, the amount required to inhibit precursor incorporation into DNA was less than that to inhibit precursor incorporation into RNA or protein (i.e. DNA synthesis is inhibited most potently)."}, "HL-60 cells": {"system": "HL-60 cells", "assay": "HL-60 cell growth inhibition, 72 h", "format": "cell-based, human", "conditions": "HL-60, 72 h; for IC50: Homo sapiens, read-out: Cell Growth Inhibition, IC50", "description": "For growth inhibition studies, HL-60 cells (1.5×10^5 /ml) were grown in RPMI 1640 media (GIBCO, Grand Island, N.Y.) at 37° C. in humidified 5% CO2 for 72 h. Viable cells were determined using trypan blue exclusion and counted in a hemocytometer. The fractional inhibition for each compound concentration (0.0025-0.05 mg/ml in 0.1% dimethylsulfoxide) was analyzed with the median-effect plot using a computer program (Chou, T. -C and P. Talalay, Adv. Enzyme Regul., 22:27-55 (1984); Chou, J. and T. -C. thou, Dose-Effect analysis with microcomputers: Quantitation of ED50, LD50, synergism, antagonism, low-dose risk, receptor ligand binding and enzyme kinetics. A computer software disk for Apple II series or IBM-PC and manual. Elsevier Science Publishers, Elsevier-BioSoft, Cambridge, United Kingdom (1986)). The median-effect concentration (IC50) was determined automatically for three to five dose-effect levels. Cell growth in the absence of plant compound and in the presence of dimethylsulfoxide was used as a control. Dimethylsulfoxide alone inhibited cell growth 3.9%±1.5% during the 72 h incubation period. Those data with negative values represent activations."}, "[2]": {"system": "DNA synthesis in HL-60 cells", "assay": "Inhibition of [3H-methyl]dThd incorporation into DNA of HL-60 cells", "format": "cell-based, human", "conditions": "Homo sapiens, HL-60, at 0.03 mg/mL; read-out: % Inhibition of Precursor Incorporation, DNA", "description": "as §1, with “control.” for “control. The control values for incorporation into DNA, RNA and protein were 8,500, 5,600 and 1,700 cpm/10^6 cells, respectively. The incubation conditions and the procedures for isolating DNA, RNA and protein fractions have been previously described (Chou, T. -C., et al., Cancer Res., 43:3074-3079 (1983)) .”\nHuman promyelocytic cells (HL-60) were incubated with [^3 H-methyl]dTHDin the presence and absence of a plant alkaloid."}, "L1210 leukemia": {"system": "L1210 leukemia", "assay": "L1210 leukemia survival time evaluation in BDF1 mice", "conditions": "for Day 6 AWC / MST / N/T (nine day survivors/total mice) / Survival Time, individual mice / % ILS (increase in lifespan): day 1, QDX4 ip; for % ILS (increase in lifespan): 25% or greater indicates activity; for antileukemic activity, in words: L1210, BDF mice, low doses, ip"}, "[3]": {"system": "protein synthesis in HL-60 cells", "assay": "Inhibition of [2,3,4,5-3H]L-Leu incorporation into protein of HL-60 cells", "format": "cell-based, human", "conditions": "Homo sapiens", "description": "as §1, §2"}, "[4]": {"conditions": "at 0.03 mg/mL, read-out: % Inhibition of Precursor Incorporation, RNA"}, "[5]": {"conditions": "HL-60, at 0.03 mg/mL, read-out: % Inhibition of Precursor Incorporation, Protein"}}, "note": "“And” between values parts separate entries of the source, which are not always exact repeats. Equal values may be shown once. Read-outs that look alike come from different tables or passages of the source.", "data": [{"smiles": "CN(C)CCOc1cc2c(c3c1c(=O)c1ccccc1n3C)C=CC(C)(C)O2", "note": "[Compound 2, O-(dimethylaminoethyl)noracronycine]", "values": [{"measurement": "antitumor activity, in words", "setting": "tumors", "value": "significant antitumor activity"}]}, {"smiles": "COc1cc(O)c2c(=O)c3cccc(OC)c3n(C)c2c1OC", "note": "[Compound 17, 5-O-Methyl-citrusinine-I]", "values": [{"measurement": "inhibition at 30 µg/mL", "setting": "[1]; [4]", "value": 96.4, "unit": "%"}, {"measurement": "cell growth inhibition, in words", "setting": "HL-60 cells", "value": "significant activity against leukemic cells in vitro"}, {"measurement": "IC50", "setting": "HL-60 cells", "value": "2.7 µg/mL and 8.6 µM"}, {"measurement": "inhibition at 30 µg/mL", "setting": "[2]", "value": 93.4, "unit": "%"}, {"measurement": "Day 6 AWC", "setting": "L1210 leukemia; 6.25 mg/kg", "value": "+1.8 g"}, {"measurement": "MST", "setting": "L1210 leukemia; 6.25 mg/kg", "value": 7.0}, {"measurement": "N/T (nine day survivors/total mice)", "setting": "L1210 leukemia; 6.25 mg/kg", "value": "0/2"}, {"measurement": "Survival Time, individual mice", "setting": "L1210 leukemia; 6.25 mg/kg", "value": 7}, {"measurement": "% ILS (increase in lifespan)", "setting": "L1210 leukemia; 6.25 mg/kg", "value": 0, "unit": "%"}, {"measurement": "Day 6 AWC", "setting": "L1210 leukemia; 12.5 mg/kg", "value": "+1.5 g"}, {"measurement": "MST", "setting": "L1210 leukemia; 12.5 mg/kg", "value": 7.0}, {"measurement": "N/T (nine day survivors/total mice)", "setting": "L1210 leukemia; 12.5 mg/kg", "value": "0/2"}, {"measurement": "Survival Time, individual mice", "setting": "L1210 leukemia; 12.5 mg/kg", "value": 7}, {"measurement": "% ILS (increase in lifespan)", "setting": "L1210 leukemia; 12.5 mg/kg", "value": 0, "unit": "%"}, {"measurement": "antileukemic activity, in words", "setting": "L1210 leukemia", "value": "not active"}, {"measurement": "inhibition at 30 µg/mL", "setting": "[3]; [5]", "value": 93, "unit": "%"}]}, {"smiles": "CC1(C)C=Cc2c(cc(O)c3c(=O)c4cccc(O)c4[nH]c23)O1", "note": "[Compound 34, Atalaphyllidine]", "values": [{"measurement": "inhibition at 30 µg/mL", "setting": "[1]; read-out: % Inhibition of Precursor Incorporation, RNA, at 0.03 mg/mL", "value": 94.8, "unit": "%"}, {"measurement": "cell growth inhibition, in words", "setting": "HL-60 cells", "value": "comparable activity"}, {"measurement": "IC50", "setting": "HL-60 cells", "value": "1.3 µg/mL and 4.2 µM"}, {"measurement": "inhibition at 30 µg/mL", "setting": "[2]", "value": 78.9, "unit": "%"}, {"measurement": "Day 6 AWC", "setting": "L1210 leukemia; 6.25 mg/kg", "value": "+1.7 g"}, {"measurement": "MST", "setting": "L1210 leukemia; 6.25 mg/kg", "value": 7.0}, {"measurement": "N/T (nine day survivors/total mice)", "setting": "L1210 leukemia; 6.25 mg/kg", "value": "0/2"}, {"measurement": "Survival Time, individual mice", "setting": "L1210 leukemia; 6.25 mg/kg", "value": 7}, {"measurement": "% ILS (increase in lifespan)", "setting": "L1210 leukemia; 6.25 mg/kg", "value": 0, "unit": "%"}, {"measurement": "Day 6 AWC", "setting": "L1210 leukemia; 25 mg/kg", "value": "+1.5 g"}, {"measurement": "MST", "setting": "L1210 leukemia; 25 mg/kg", "value": 7.5}, {"measurement": "N/T (nine day survivors/total mice)", "setting": "L1210 leukemia; 25 mg/kg", "value": "0/2"}, {"measurement": "% ILS (increase in lifespan)", "setting": "L1210 leukemia; 25 mg/kg", "value": 7, "unit": "%"}, {"measurement": "Survival Time, individual mice", "setting": "L1210 leukemia; 25 mg/kg, listed as SK 32090", "value": "7 and 8"}, {"measurement": "antileukemic activity, in words", "setting": "L1210 leukemia", "value": "evidence of antileukemic activity"}, {"measurement": "inhibition at 30 µg/mL", "setting": "[3]; HL-60, read-out: % Inhibition of Precursor Incorporation, Protein, at 0.03 mg/mL", "value": 82.9, "unit": "%"}]}, {"smiles": "CC(C)=CCc1c2c(c3[nH]c4ccccc4c(=O)c3c1O)C=CC(C)(C)O2", "note": "[Compound 36, Severifoline]", "values": [{"measurement": "IC50", "setting": "HL-60 cells", "value": "> 40 µg/mL and > 111 µM"}, {"measurement": "inhibition at 30 µg/mL", "setting": "[2]", "value": 20, "unit": "%"}, {"measurement": "antitumor activity, in words", "setting": "tumors", "value": "no antitumor activity"}]}, {"smiles": "Cn1c2c(O)cccc2c(=O)c2c(O)cc3c(c21)C=CC(C)(C)O3", "note": "[Compound 37, 11-Hydroxy-noracronycine]", "values": [{"measurement": "inhibition at 30 µg/mL", "setting": "[1]; [4]", "value": 96.6, "unit": "%"}, {"measurement": "cell growth inhibition, in words", "setting": "HL-60 cells", "value": "comparable activity"}, {"measurement": "IC50", "setting": "HL-60 cells", "value": "2.3 µg/mL and 7.1 µM"}, {"measurement": "inhibition at 30 µg/mL", "setting": "[2]", "value": 98.6, "unit": "%"}, {"measurement": "Day 6 AWC", "setting": "L1210 leukemia; 6.25 mg/kg", "value": "+2.0 g"}, {"measurement": "MST", "setting": "L1210 leukemia; 6.25 mg/kg", "value": 7.0}, {"measurement": "N/T (nine day survivors/total mice)", "setting": "L1210 leukemia; 6.25 mg/kg", "value": "0/2"}, {"measurement": "Survival Time, individual mice", "setting": "L1210 leukemia; 6.25 mg/kg", "value": 7}, {"measurement": "% ILS (increase in lifespan)", "setting": "L1210 leukemia; 6.25 mg/kg", "value": 0, "unit": "%"}, {"measurement": "Day 6 AWC", "setting": "L1210 leukemia; 25 mg/kg", "value": "+1.8 g"}, {"measurement": "MST", "setting": "L1210 leukemia; 25 mg/kg", "value": 7.0}, {"measurement": "N/T (nine day survivors/total mice)", "setting": "L1210 leukemia; 25 mg/kg", "value": "0/2"}, {"measurement": "Survival Time, individual mice", "setting": "L1210 leukemia; 25 mg/kg", "value": 7}, {"measurement": "% ILS (increase in lifespan)", "setting": "L1210 leukemia; 25 mg/kg", "value": 0, "unit": "%"}, {"measurement": "antileukemic activity, in words", "setting": "L1210 leukemia", "value": "not active"}, {"measurement": "inhibition at 30 µg/mL", "setting": "[3]; [5]", "value": 95.3, "unit": "%"}]}, {"smiles": "COc1ccc2c(=O)c3c(O)cc4c(c3n(C)c2c1OC)C=CC(C)(C)O4", "note": "[Compound 44, Citracridone-II]", "values": [{"measurement": "inhibition at 30 µg/mL", "setting": "[1]; [4]", "value": 96.4, "unit": "%"}, {"measurement": "IC50", "setting": "HL-60 cells", "value": "> 40 µg/mL and > 109 µM"}, {"measurement": "inhibition at 30 µg/mL", "setting": "[2]", "value": 77.6, "unit": "%"}, {"measurement": "inhibition at 30 µg/mL", "setting": "[3]; [5]", "value": 62.7, "unit": "%"}]}, {"smiles": "COc1ccc2c(=O)c3c(OC)cc4c(c3n(C)c2c1OC)C=CC(C)(C)O4", "note": "[Compound 45, 6-O-Methylcitracridone-II]", "values": [{"measurement": "inhibition at 30 µg/mL", "setting": "[1]; [4]", "value": 37.8, "unit": "%"}, {"measurement": "cell growth inhibition, in words", "setting": "HL-60 cells", "value": "significantly active"}, {"measurement": "IC50", "setting": "HL-60 cells", "value": "5.9 µg/mL and 15.5 µM"}, {"measurement": "inhibition at 30 µg/mL", "setting": "[2]", "value": 98.7, "unit": "%"}, {"measurement": "inhibition at 30 µg/mL", "setting": "[3]; [5]", "value": 49.8, "unit": "%"}]}]}
